Assay results published in patent US7396837B2, “Antitumoral analogs of lamellarins” (Pharma Mar, S.A.U., priority 2002, dated 2008).
Like-named read-outs stand apart in the source and are kept apart here.

Columns and labels:
Assay type in all cases: cell-based
LoVo = experiment: SRB colorimetric cell growth inhibition assay, LoVo; details: for GI50: read-out: GI50 LOVO; for CC50: read-out: LC50 LOVO
How it was run: (§1)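 Cells are kept under uninterrupted exposure to compound. Staining with sulforhodamine B then measures cell growth and viability. Triplicate data give mean ± SD, from which growth inhibition, total growth inhibition and lethal concentration values follow.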

LNCaP = experiment: SRB colorimetric cell growth inhibition assay, LNCaP; details: for GI50: read-out: GI50 LN-caP; for CC50: read-out: LC50 LN-caP
How it was run: as §1

SK-BR-3 = experiment: SRB colorimetric cell growth inhibition assay, SK-BR-3
How it was run: as §1

K-562 = experiment: SRB colorimetric cell growth inhibition assay, K-562
How it was run: as §1

PANC-1 = experiment: SRB colorimetric cell growth inhibition assay, PANC-1
How it was run: as §1

HT-29 = experiment: SRB colorimetric cell growth inhibition assay, HT-29
How it was run: as §1

HeLa-APL = experiment: SRB colorimetric cell growth inhibition assay, HeLa-APL (aplidine resistant); details: for GI50: read-out: GI50 HELA-APL; for CC50: read-out: LC50 HELA-APL
How it was run: as §1

IGROV = experiment: SRB colorimetric cell growth inhibition assay, IGROV; details: IGROV; for GI50: read-out: GI50 IGROV; for CC50: read-out: LC50 IGROV
How it was run: as §1

HeLa = experiment: SRB colorimetric cell growth inhibition assay, HeLa; details: for GI50: read-out: GI50 HELA; for CC50: read-out: LC50 HELA
How it was run: as §1

IGROV-ET = experiment: SRB colorimetric cell growth inhibition assay, IGROV-ET (ET-743 resistant); details: for GI50: read-out: GI50 IGROV-ET; for CC50: read-out: LC50 IGROV-ET
How it was run: as §1

SK-MEL-28 = experiment: SRB colorimetric cell growth inhibition assay, SK-MEL-28
How it was run: as §1

LoVo-Dox = experiment: SRB colorimetric cell growth inhibition assay, LoVo-Dox (MDR); details: for GI50: read-out: GI50 LOVO-DOX; for CC50: read-out: LC50 LOVO-DOX
How it was run: as §1

A-549 = experiment: SRB colorimetric cell growth inhibition assay, A-549
How it was run: as §1

DU-145 = experiment: SRB colorimetric cell growth inhibition assay, DU-145
How it was run: as §1

With `COc1cc(-c2c3c4cc(OC)c(OC(=O)[C@H](C)N)cc4oc(=O)c3n3ccc4c(OC(=O)[C@H](C)N)c(OC)c(OC)cc4c23)ccc1OC(=O)[C@H](C)N` [Compound 16] the GI50 (LoVo; LOVO, GI=growth inhibition) was 0.196 µM, the CC50 (LoVo; LOVO, cell killing (cytotoxic effect)) was 0.612 µM and the “TGI LOVO” value (LoVo; LOVO, total growth inhibition (cytostatic effect)) was 3.47E−07 Molar. The GI50 (LNCaP; LN-caP, GI=growth inhibition) was 0.131 µM, the CC50 (LNCaP; LN-caP, cell killing (cytotoxic effect)) was 0.534 µM and the “TGI LN-caP” value (LNCaP; LN-caP, total growth inhibition (cytostatic effect)) was 2.65E−07 Molar. The GI50 (SK-BR-3; SK-BR-3, GI=growth inhibition, read-out: GI50 SK-BR-3) was 0.207 µM, the CC50 (SK-BR-3; SK-BR-3, cell killing (cytotoxic effect), read-out: LC50 SK-BR-3) was 0.816 µM and the “TGI SK-BR-3” value (SK-BR-3; SK-BR-3, total growth inhibition (cytostatic effect)) was 4.11E−07 Molar. The GI50 (K-562; Homo sapiens, K562, K-562, GI=growth inhibition, read-out: GI50 K-562) was 0.183 µM, the CC50 (K-562; K-562, cell killing (cytotoxic effect), read-out: LC50 K-562) was 2.23 µM and the “TGI K-562” value (K-562; K-562, total growth inhibition (cytostatic effect)) was 4.45E−07 Molar. For the same compound, the GI50 (PANC-1; PANC-1, GI=growth inhibition, read-out: GI50 PANC-1) was 0.241 µM, the CC50 (PANC-1; PANC-1, cell killing (cytotoxic effect), read-out: LC50 PANC-1) was 3.34 µM and the “TGI PANC-1” value (PANC-1; PANC-1, total growth inhibition (cytostatic effect)) was 7.56E−07 Molar. For the same compound, the GI50 (HT-29; HT-29, GI=growth inhibition, read-out: GI50 HT-29) was 0.411 µM, the CC50 (HT-29; HT-29, cell killing (cytotoxic effect), read-out: LC50 HT-29) was 5 µM and the “TGI HT-29” value (HT-29; HT-29, total growth inhibition (cytostatic effect)) was 9.31E−07 Molar. The GI50 (HeLa-APL; HELA-APL, GI=growth inhibition) was 0.229 µM, the CC50 (HeLa-APL; HELA-APL, cell killing (cytotoxic effect)) was 2.38 µM and the “TGI HELA-APL” value (HeLa-APL; HELA-APL, total growth inhibition (cytostatic effect)) was 5.20E−07 Molar. The GI50 (IGROV; GI=growth inhibition) was 0.226 µM, the CC50 (IGROV; cell killing (cytotoxic effect)) was 1.59 µM and the “TGI IGROV” value (IGROV; total growth inhibition (cytostatic effect)) was 4.78E−07 Molar. For the same compound, the GI50 (HeLa; HELA, GI=growth inhibition) was 0.193 µM, the CC50 (HeLa; HELA, cell killing (cytotoxic effect)) was 0.703 µM and the “TGI HELA” value (HeLa; HELA, total growth inhibition (cytostatic effect)) was 3.68E−07 Molar. The GI50 (IGROV-ET; IGROV-ET, GI=growth inhibition) was 0.278 µM, the CC50 (IGROV-ET; IGROV-ET, cell killing (cytotoxic effect)) was 0.897 µM and the “TGI IGROV-ET” value (IGROV-ET; IGROV-ET, total growth inhibition (cytostatic effect)) was 5.00E−07 Molar. For the same compound, the GI50 (SK-MEL-28; MEL-28, GI=growth inhibition, read-out: GI50 MEL-28) was 0.138 µM, the CC50 (SK-MEL-28; MEL-28, cell killing (cytotoxic effect), read-out: LC50 MEL-28) was 0.669 µM and the “TGI MEL-28” value (SK-MEL-28; MEL-28, total growth inhibition (cytostatic effect)) was 3.04E−07 Molar. For the same compound, the GI50 (LoVo-Dox; Homo sapiens, LOVO-DOX, GI=growth inhibition) was 0.42 µM, the CC50 (LoVo-Dox; LOVO-DOX, cell killing (cytotoxic effect)) was 4.42 µM and the “TGI LOVO-DOX” value (LoVo-Dox; LOVO-DOX, total growth inhibition (cytostatic effect)) was 1.03E−06 Molar. The GI50 (A-549; A-549, GI=growth inhibition, read-out: GI50 A-549) was 0.178 µM, the CC50 (A-549; A-549, cell killing (cytotoxic effect), read-out: LC50 A-549) was 3.05 µM and the “TGI A-549” value (A-549; A-549, total growth inhibition (cytostatic effect)) was 5.02E−07 Molar. For the same compound, the GI50 (DU-145; DU-145, GI=growth inhibition, read-out: GI50 DU-145) was 0.0527 µM, the CC50 (DU-145; DU-145, cell killing (cytotoxic effect), read-out: LC50 DU-145) was 2.8 µM and the “TGI DU-145” value (DU-145; DU-145, total growth inhibition (cytostatic effect)) was 2.98E−07 Molar.

For `COc1cc(-c2c3c4cc(OC)c(OC(=O)[C@H](C)NC(=O)[C@H](C)NC(=O)OC(C)(C)C)cc4oc(=O)c3n3ccc4c(OC(=O)[C@H](C)NC(=O)[C@H](C)NC(=O)OC(C)(C)C)c(OC)c(OC)cc4c23)ccc1OC(=O)[C@H](C)NC(=O)[C@H](C)NC(=O)OC(C)(C)C` [Compound 6], the GI50 (LoVo; Homo sapiens, LoVo) was 2.79 µM, the CC50 (LoVo; Homo sapiens, LoVo) was 7.96 µM and the IC (TGI) (LoVo; Homo sapiens, LoVo, read-out: TGI LOVO) was 7.96 µM. For the same compound, the GI50 (LNCaP; Homo sapiens, LNCaP) was 0.578 µM, the CC50 (LNCaP; Homo sapiens, LNCaP) was 7.96 µM and the IC (TGI) (LNCaP; Homo sapiens, LNCaP, read-out: TGI LN-caP) was 7.96 µM. The GI50 (SK-BR-3; Homo sapiens, SK-BR-3, read-out: GI50 SK-BR-3) was 0.548 µM, the CC50 (SK-BR-3; Homo sapiens, SK-BR-3, read-out: LC50 SK-BR-3) was 7.96 µM and the IC (TGI) (SK-BR-3; Homo sapiens, SK-BR-3, read-out: TGI SK-BR-3) was 2.56 µM. For the same compound, the GI50 (K-562; Homo sapiens, K562, read-out: GI50 K-562) was 0.482 µM, the CC50 (K-562; Homo sapiens, K562, read-out: LC50 K-562) was 7.96 µM and the IC (TGI) (K-562; Homo sapiens, K562, read-out: TGI K-562) was 5.38 µM. For the same compound, the GI50 (PANC-1; Homo sapiens, PANC-1, read-out: GI50 PANC-1) was 2.46 µM, the CC50 (PANC-1; Homo sapiens, PANC-1, read-out: LC50 PANC-1) was 7.96 µM and the IC (TGI) (PANC-1; Homo sapiens, PANC-1, read-out: TGI PANC-1) was 7.96 µM. For the same compound, the GI50 (HT-29; Homo sapiens, HT-29, read-out: GI50 HT-29) was 7.96 µM, the CC50 (HT-29; Homo sapiens, HT-29, read-out: LC50 HT-29) was 7.96 µM and the IC (TGI) (HT-29; Homo sapiens, HT-29, read-out: TGI HT-29) was 7.96 µM. It also gave a GI50 (HeLa-APL; Homo sapiens) of 3.41 µM, a CC50 (HeLa-APL; Homo sapiens) of 7.96 µM and an IC (TGI) (HeLa-APL; Homo sapiens, read-out: TGI HELA-APL) of 7.96 µM. The GI50 (IGROV; Homo sapiens) was 0.963 µM, the CC50 (IGROV; Homo sapiens) was 7.96 µM and the IC (TGI) (IGROV; Homo sapiens, read-out: TGI IGROV) was 7.96 µM. For the same compound, the GI50 (HeLa; Homo sapiens, HeLa) was 0.584 µM, the CC50 (HeLa; Homo sapiens, HeLa) was 7.96 µM and the IC (TGI) (HeLa; Homo sapiens, HeLa, read-out: TGI HELA) was 7.96 µM. It also gave a GI50 (IGROV-ET; Homo sapiens) of 1.39 µM, a CC50 (IGROV-ET; Homo sapiens) of 7.96 µM and an IC (TGI) (IGROV-ET; Homo sapiens, read-out: TGI IGROV-ET) of 7.96 µM. The GI50 (SK-MEL-28; Homo sapiens, SK-MEL-28, read-out: GI50 MEL-28) was 0.386 µM, the CC50 (SK-MEL-28; Homo sapiens, SK-MEL-28, read-out: LC50 MEL-28) was 7.96 µM and the IC (TGI) (SK-MEL-28; Homo sapiens, SK-MEL-28, read-out: TGI MEL-28) was 1.74 µM. It also gave a GI50 (LoVo-Dox; Homo sapiens) of 3.84 µM, a CC50 (LoVo-Dox; Homo sapiens) of 7.96 µM and an IC (TGI) (LoVo-Dox; Homo sapiens, read-out: TGI LOVO-DOX) of 7.96 µM. For the same compound, the GI50 (A-549; Homo sapiens, A549, read-out: GI50 A-549) was 0.497 µM, the CC50 (A-549; Homo sapiens, A549, read-out: LC50 A-549) was 7.96 µM and the IC (TGI) (A-549; Homo sapiens, A549, read-out: TGI A-549) was 7.96 µM. For the same compound, the GI50 (DU-145; Homo sapiens, DU-145, read-out: GI50 DU-145) was 0.355 µM, the CC50 (DU-145; Homo sapiens, DU-145, read-out: LC50 DU-145) was 7.96 µM and the IC (TGI) (DU-145; Homo sapiens, DU-145, read-out: TGI DU-145) was 1.46 µM.
